* marks the point of attachment. Myristoyl = CCCCCCCCCCCCCC(=O)*
Experiments:
NgR1 [1] = experiment: Phosphorylation of endogenous NgR1 (upper band, immunoblotting) in RA-treated SH-SY5Y cells; assay type: cell-based, human; conditions: incubated with BDNF in the presence of kinase inhibitor, 24 hours
Description: FIG. 1. BDNF promotes neurite outgrowth of RA-treated SH-SY5Y, and induces phosphorylation of NgR1. (A) SH-SY5Y cells were incubated with indicated reagents. Cell images were taken with phase contrast microscopy. (B) Number of cells extending neurite-like structures of more than 40 μm and total cell number were counted from images taken in (A). More than 300 cells were examined in each sample. The proportion of cells extending neurite-like structures of more than 40 μm was indicated as a percentage of total cell number. An average of three experiments is shown. Error bars indicate S. E. between experiments. Data were analysed with student's t test. (C) Whole cell extracts were prepared from RA-treated SH-SY5Y cells after incubation with or without BDNF for 24 hours, and were analysed by SDS-PAGE. Immunoblotting was performed with the indicated antibodies. (D) Whole cell extract prepared from cells treated with both RA and BDNF was incubated with the indicated reagents for 1 hour at 37° C. Immunoblotting was performed with anti-NgR1 antibody. (E) RA-treated SH-SY5Y cells were incubated with BDNF in the presence or absence of one of the following: PKC inhibitor—500 nM Gö6983 or Gö6976; PKA inhibitor—2 μM KT5720 or a PKA inhibitor peptide 14-22; or either 500 nM or 1 μM of a casein kinase inhibitor, for 24 hours. Whole cell extracts prepared from these cells were analysed by SDS-PAGE. Immunoblotting was performed with anti-NgR1 antibody.
SH-SY5Y cells were cultured in Ham's F12 medium with 10% foetal bovine serum at 37° C. in 5% CO2 and 95% air. Passage numbers between 15 and 21 were used in experiments described in this paper. Further passages induce spontaneous differentiation and cells tend to extend neurites without BDNF (data not shown). For RA treatment, the cells are seeded (20,000 cells/well) on collagen IV coated 4 well chamber slides. After 24 hours culture, medium was changed to Ham's F12 medium containing 10 μM RA and 10% foetal bovine serum. Medium was changed to fresh medium on day 3 and cells were used for experiments after 5 days culture. Encinas et al. (18) reported that RA-treated SH-SY5Y cells initiate apoptosis after withdrawal of serum only when the cells are cultured at low density. The cell density used in this paper was higher than that in the paper by Encinas et al. (18) and cell death due to depletion of serum or BDNF was not significant. In this paper, the SH-SY5Y cells treated with RA for 5 days are called RA-treated SH-SY5Y. For BDNF treatment, the RA-treated SH-SY5Y cells were washed with serum-free Ham's F12 medium and incubated with 25 ng/ml BDNF in serum-free Ham's F12 medium for 24 hours. As a control (RA alone), the RA-treated SH-SY5Y cells were incubated with serum-free Ham's F12 alone for 24 hours.
Cells were scraped off from dishes and washed with PBS twice, and then resuspended in PBS containing 0.1% Triton X100 and phosphatase inhibitor cocktail (Roche) and EDTA-free protease inhibitor cocktail (Roche). After incubation for 15 min on ice, samples were centrifuged at 14,000×g for 20 min at 4° C. The supernatants containing 30 μg of proteins were analysed by SDS-PAGE and blotted to PVDF membrane. The PVDF membrane was incubated in blocking buffer (5% skimmed milk, 0.4% Triton X-100 in PBS) for 1 hour, first antibody diluted in the blocking buffer and appropriate secondary antibody labelled with horse radish peroxidase. Bound antibodies were visualised with ECL or ECL Plus kit (GE healthcare).

NgR1 [2] = target: T1, NgR1 (Homo sapiens, UniProt Q9BZR6, S281D); experiment: Binding of MAG to COS7 cells over-expressing NgR1; conditions: 281S/D mutant NgR1
T1 construct: The cDNAs of NgR1 (NM 023004, Nt. 184-1543); expressed in transfected cells; host or cells: COS7
T1 sequence (Q9BZR6 27-447 S281D): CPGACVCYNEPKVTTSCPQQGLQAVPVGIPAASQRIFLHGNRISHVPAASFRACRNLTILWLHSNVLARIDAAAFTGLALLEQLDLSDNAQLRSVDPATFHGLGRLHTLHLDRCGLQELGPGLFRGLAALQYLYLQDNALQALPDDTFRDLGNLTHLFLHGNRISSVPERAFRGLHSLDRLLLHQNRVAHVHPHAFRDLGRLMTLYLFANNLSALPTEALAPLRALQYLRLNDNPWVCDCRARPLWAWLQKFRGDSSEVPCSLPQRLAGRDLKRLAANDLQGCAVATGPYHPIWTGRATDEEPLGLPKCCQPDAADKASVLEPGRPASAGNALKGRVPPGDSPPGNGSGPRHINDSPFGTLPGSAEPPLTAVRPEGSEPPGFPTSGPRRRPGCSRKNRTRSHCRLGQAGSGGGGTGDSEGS
Description: (§1) FIG. 3. CK2 phosphorylates NgR1, and inhibits binding of the myelin-associated proteins to NgR1. (A) Myc-tagged wild type, 281S/A or 281S/D mutant NgR1 were over-expressed in COS7 cells. The over-expressed cells were incubated with either the combination of ATP and CK2, or NEP1-40 for 30 min at 37° C. After washing with PBS, cells were incubated with Hisx6-tagged Nogo-GFP for 3 hours at 4° C. The cells were fixed and immunofluorescence was performed with anti-Myc and anti-GFP antibodies. (B) COS7 cells over-expressing Myc-tagged wild type NgR1 were treated as described in (A). Proteins were extracted and the Myc-tagged NgR1 was immunoprecipitated with anti-Myc antibody. Co-precipitated Hisx6-tagged Nogo-GFP was detected by anti-GFP antibody. […] The biotinylated proteins were fractionated and analysed by SDS-PAGE. Biotinylated NgR1-Myc was detected with anti-Myc. antibody. […] Myc-tagged proteins were immunoprecipitated and analysed with SDS-PAGE. […]
(§2) After treatment with or without CK2, COS7 cells over-expressing wild type or mutant NgR were incubated with Hisx6 tagged Nogo-GFP (10 μg/ml), HA-MAG (50 μg/ml) or Hisx6 tagged OMgp (10 μg/ml) in PBS for 3 hours at 4° C. […] Biotinylated proteins were precipitated with streptavidin beads and were analysed by SDS-PAGE. Each sample fractionated from 5×10^6 cells was analysed by SDS-PAGE.

NgR1 [3] = target: T1, NgR1; experiment: Binding of OMgp to COS7 cells over-expressing NgR1; conditions: 281S/D mutant NgR1
Description: as §1, §2

| Molecule | level of the upper band of NgR1 (NgR1 [1]) | further results |
| --- | --- | --- |
| CCCCCCOC(=O)[C@]1(O)C[C@@H]2O[C@@]1(C)n1c3ccccc3c3c4c(c5c6ccccc6n2c5c31)C(=O)NC4 [KT 5720] | Neither PKC inhibitors Gö6983 and Gö6976, nor PKA inhibitors KT 5720 and a PKA inhibitor peptide, show effects | – |
| PKA inhibitor peptide: myristoylated PKA inhibitor peptide 14-22 amide, purchased from Merck (Myristoyl-SGRTGRRNA-NH2; SMILES CCCCCCCCCCCCCC(=O)N[C@@H](CO)C(=O)NCC(=O)N[C@@H](CCCNC(=N)N)C(=O)N[C@H](C(=O)NCC(=O)N[C@@H](CCCNC(=N)N)C(=O)N[C@@H](CCCNC(=N)N)C(=O)N[C@@H](CC(N)=O)C(=O)N[C@@H](C)C(N)=O)[C@@H](C)O; UniProt P61925 14-22, looked up, fragment) | Neither PKC inhibitors Gö6983 and Gö6976, nor PKA inhibitors KT 5720 and a PKA inhibitor peptide, show effects | – |
| Brc1c(Br)c(Br)c2[nH]nnc2c1Br [CK2 inhibitor, 4,5,6,7-Tetrabromo-2-azabenzimidazole] | decreased the upper band | – |
| Cn1c2ccccc2c2c3c(c4c5ccccc5n(CCC#N)c4c21)CNC3=O [Gö6976] | Neither PKC inhibitors Gö6983 and Gö6976, nor PKA inhibitors KT 5720 and a PKA inhibitor peptide, show effects | – |
| COc1ccc2c(c1)c(C1=C(c3c[nH]c4ccccc34)C(=O)NC1=O)cn2CCCN(C)C [Gö6983] | Neither PKC inhibitors Gö6983 and Gö6976, nor PKA inhibitors KT 5720 and a PKA inhibitor peptide, show effects | – |
| MAG: human myelin-associated glycoprotein, HA-tagged, purified from COS7 conditioned medium (protein) GHWGAWMPSSISAFEGTCVSIPCRFDFPDELRPAVVHGVWYFNSPYPKNYPPVVFKSRTQVVHESFQGRSRLLGDLGLRNCTLLLSNVSPELGGKYYFRGDLGGYNQYTFSEHSVLDIVNTPNIVVPPEVVAGTEVEVSCMVPDNCPELRPELSWLGHEGLGEPAVLGRLREDEGTWVQVSLLHFVPTREANGHRLGCQASFPNTTLQFEGYASMDVKYPPVIVEMNSSVEAIEGSHVSLLCGADSNPPPLLTWMRDGTVLREAVAESLLLELEEVTPAEDGVYACLAENAYGQDNRTVGLSVMYAPWKPTVNGTMVAVEGETVSILCSTQSNPDPILTIFKEKQILSTVIYESELQLELPAVSPEDDGEYWCVAENQYGQRATAFNLSVEFAPVLLLESHCAAARDTVQCLCVVKSNPEPSVAFELPSRNVTVNESEREFVYSERSGLVLTSILTLRGQAQAPPRVICTARNLYGAKSLELPFQG | – | binding of ligand to cells (NgR1 [2]): Neither OMgp nor MAG bound |
| OMgp: oligodendrocyte myelin glycoprotein, His-tagged, purchased from R&D (protein, UniProt P23515 25-417, looked up, His tag, oligodendrocyte myelin glycoprotein, His-tagged, purchased from R&D) Oligodendrocyte-myelin …: ICPLQCICTERHRHVDCSGRNLSTLPSGLQENIIHLNLSYNHFTDLHNQLTQYTNLRTLDISNNRLESLPAHLPRSLWNMSAANNNIKLLDKSDTAYQWNLKYLDVSKNMLEKVVLIKNTLRSLEVLNLSSNKLWTVPTNMPSKLHIVDLSNNSLTQILPGTLINLTNLTHLYLHNNKFTFIPDQSFDQLFQLQEITLYNNRWSCDHKQNITYLLKWMMETKAHVIGTPCSTQISSLKEHNMYPTPSGFTSSLFTVSGMQTVDTINSLSVVTQPKVTKIPKQYRTKETTFGATLSKDTTFTSTDKAFVPYPEDTSTETINSHEAAAATLTIHLQDGMVTNTSLTSSTKSSPTPMTLSITSGMPNNFSEMPQQSTTLNLWREETTTNVKTPLPS | – | binding of ligand to cells (NgR1 [3]): Neither OMgp nor MAG bound |
